Source: PubChem BioAssay AID1919001 (Molecular Pharmacology Branch, DTP, NCI, 2023)

System: 699152-130-R-J1-PDC complex spheroid growth
Experiment: Anticancer human tumor 699152-130-R-J1-PDC patient-derived pancreatic carcinoma cell line growth inhibition [AhR]
Settings: for IC50: curve of first compound; for viability, T/C: stronger effect = lower value
Description: Multicellular complex tumor spheroid response to aryl hydrocarbon receptor antagonists in combination with a variety of drugs and investigational agents in selected tumor cell lines
The current study was undertaken to assess response to aryl hydrocarbon receptor antagonists in combination with standard-of-care drugs and investigational agents in solid tumor complex spheroid models. Complex spheroids include a stromal component modeled by human endothelial cells (HUVEC) and fibroblasts modeled by human mesenchymal stem cells (MSCs). The concentration ranges selected for each drug and investigational agent were based upon clinically achievable concentrations if the clinical Cmax of the agent was known.
Compounds. The drugs and investigational agents: BAY 2416964 (NSC825713), GNF351 (NSC835774), CH-223191 (NSC835775), CPI-455 (NSC825282), aza-TdCyd (NSC777586), decitabine (NSC127716), belinostat (NSC758774), entinostat (NSC756642), pevonedistat (NSC761192), tazemetostat (NSC777109), talazoparib (NSC765396), olaparib (NSC753686), selinexor (NSC780203), nedisertib (M3814, NSC802822), bortezomib (NSC756655), venetoclax (NSC766270), doxorubicin (NSC123127), elimusertib (BAY189344, NSC800525), ceralasertib (AZD6738, NSC777638), TAK-243 (NSC785004), alisertib (NSC759677), etoposide (NSC141540), topotecan (NSC609699), eribulin (NSC707389), gemcitabine (NSC613327), carboplatin (NSC241240), cisplatin (NSC119875), and SN-38 (NSC673596) were obtained from the National Cancer Institute (NCI) Developmental Therapeutics Program Chemical Repository (32). The FDA-approved anticancer drug set is available from the Developmental Therapeutics Program at https://dtp.cancer.gov/organization/dscb/obtaining/available plates.htm. […] The stock solutions were prepared in dimethyl sulfoxide (DMSO, Sigma-Aldrich, St. Louis, MO, cat. D2650), except for the platinum compounds which were prepared in saline (Quality Biological, Gaithersburg, MD, cat. 114-055-101), at 800-fold the tested concentration and stored at -70 degrees C prior to their use. All drugs and investigational agents were tested over a range starting from a high concentration at or near the clinical Cmax and decreasing in half-log increments. If the clinical Cmax for an agent had not been determined, the highest concentration tested was 10 microM (Table 1).
Cell Culture. All cells were maintained in an incubator at 37 degrees C and 5% CO2 with 95% humidity. The PDC lines were cultured according to standard operating procedures established by the NCI PDMR (https://pdmr.cancer.gov). Briefly, all PDCs were thawed and cultured in Matrigel-coated flasks prepared with a working solution of 1X Ham's F-12 nutrient mix, without supplementation (Invitrogen, Waltham, MA, cat. 11765054), 100 U/mL penicillin-streptomycin (Invitrogen, cat. 15140122), and 2.5% Matrigel (Corning Inc., Corning, NY, cat. 354248) for the first three passages. All PDCs were cultured in complete DMEM/F-12 media containing advanced DMEM/F-12 (Invitrogen, cat. 12634028), 4.9% defined fetal bovine serum, heat inactivated (HyClone Laboratories Inc., Logan, UT, cat. SH30070.03HI), 389 ng/mL hydrocortisone (Sigma-Aldrich, cat. H4001), 9.7 ng/mL human EGF recombinant protein (Invitrogen, cat. PHG0313), 23.4 microg/mL adenine (Sigma-Aldrich, cat. A2786), 97.3 U/mL penicillin-streptomycin (Invitrogen, cat. 15140122), 1.9 mM L-glutamine (Invitrogen, cat. 25030081), and 9.7 microM Y-27632 dihydrochloride (Tocris Bioscience, Bristol, United Kingdom, cat. 1254). The PDCs were cultured in complete DMEM/F12 media without 10 microM Y-27632 dihydrochloride for at least two passages prior to the screen. The established cell lines NCI-H1341 and […] were cultured in DMEM/F-12, HEPES (Invitrogen, cat. 11330032), 5% defined fetal bovine serum (HyClone Laboratories Inc., cat. SH30070.03), ITS premix universal culture supplement [insulin (5 microg/mL), transferrin (5 microg/mL), and selenious acid (5 ng/mL)] […]

[1] = second compound 0.1 µM, first compound 0.00949 µM
[2] = second compound 0.1 µM, first compound 0.03 µM
[3] = second compound 0.1 µM, first compound 0.0949 µM
[4] = second compound 0.1 µM, first compound 0.3 µM
[5] = second compound 0.316 µM, first compound 0.00949 µM
[6] = second compound 0.316 µM, first compound 0.03 µM
[7] = second compound 0.316 µM, first compound 0.0949 µM
[8] = second compound 0.316 µM, first compound 0.3 µM
[9] = second compound 1 µM, first compound 0.00949 µM
[10] = second compound 1 µM, first compound 0.03 µM
[11] = second compound 1 µM, first compound 0.0949 µM
[12] = second compound 1 µM, first compound 0.3 µM
[13] = second compound 3.16 µM, first compound 0.00949 µM
[14] = second compound 3.16 µM, first compound 0.03 µM
[15] = second compound 3.16 µM, first compound 0.0949 µM
[16] = second compound 3.16 µM, first compound 0.3 µM
[17] = second compound 10 µM, first compound 0.00949 µM
[18] = second compound 10 µM, first compound 0.03 µM
[19] = second compound 10 µM, first compound 0.0949 µM
[20] = second compound 10 µM, first compound 0.3 µM
[21] = second compound 0.1 µM, first compound 0.000949 µM
[22] = second compound 0.1 µM, first compound 0.003 µM
[23] = second compound 0.316 µM, first compound 0.000949 µM
[24] = second compound 0.316 µM, first compound 0.003 µM
[25] = second compound 1 µM, first compound 0.000949 µM
[26] = second compound 1 µM, first compound 0.003 µM
[27] = second compound 3.16 µM, first compound 0.000949 µM
[28] = second compound 3.16 µM, first compound 0.003 µM
[29] = second compound 10 µM, first compound 0.000949 µM
[30] = second compound 10 µM, first compound 0.003 µM
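Further: compound exposure lasted 7 days after spheroids had grown for 3 days.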

Compound | IC50 (second compound 0.1 µM) [nM] | IC50 (second compound 0.316 µM) [nM] | IC50 (second compound 1 µM) [nM] | IC50 (second compound 3.16 µM) [nM] | IC50 (second compound 10 µM) [nM] | viability, T/C [1] [%] | viability, T/C [2] [%] | viability, T/C [3] [%] | viability, T/C [4] [%] | viability, T/C [5] [%] | viability, T/C [6] [%] | viability, T/C [7] [%] | viability, T/C [8] [%] | viability, T/C [9] [%] | viability, T/C [10] [%] | viability, T/C [11] [%] | viability, T/C [12] [%] | viability, T/C [13] [%] | viability, T/C [14] [%] | viability, T/C [15] [%] | also measured
O=C(C=Cn1cnc(-c2cc(C(F)(F)F)cc(C(F)(F)F)c2)n1)NNc1cnccn1 + Cc1ccccc1N=Nc1ccc(NC(=O)c2ccnn2C)c(C)c1 | > 3000 | > 3000 | > 3000 | > 3000 | > 3000 | 92.5 | 84.5 | 87.8 | 75.1 | 85.5 | 82 | 82.7 | 79.3 | 92 | 90.8 | 93.2 | 78.7 | 97.6 | 115 | 98.6 | viability, T/C (second compound 0.1 µM, first compound 0.949 µM): 78.1%; viability, T/C (second compound 0.1 µM, first compound 3 µM): 57.5%; viability, T/C (second compound 0.316 µM, first compound 0.949 µM): 69.1%; viability, T/C (second compound 0.316 µM, first compound 3 µM): 58%; viability, T/C (second compound 1 µM, first compound 0.949 µM): 74.2%; viability, T/C (second compound 1 µM, first compound 3 µM): 61.6%; viability, T/C [16]: 69.6%; viability, T/C (second compound 3.16 µM, first compound 0.949 µM): 76.4%; viability, T/C (second compound 3.16 µM, first compound 3 µM): 66.6%; viability, T/C [17]: 120%; viability, T/C [18]: 112%; viability, T/C [19]: 91.7%; viability, T/C [20]: 77.5%; viability, T/C (second compound 10 µM, first compound 0.949 µM): 69.9%; viability, T/C (second compound 10 µM, first compound 3 µM): 69.7%
CCc1c2c(nc3ccc(O)cc13)-c1cc3c(c(=O)n1C2)COC(=O)[C@]3(O)CC + CC(CO)NC(=O)c1cc(-c2ccc(Cl)cc2)nn(-c2cnn(C)c2)c1=O | 18.2 | 26.4 | 42.1 | 22.1 | 47.3 | 56.5 | 46.2 | 48 | 35.7 | 58.9 | 49.4 | 44.8 | 41.3 | 61.3 | 51.4 | 47.2 | 41.5 | 57.2 | 45.3 | 42 | viability, T/C [21]: 89%; viability, T/C [22]: 83.5%; viability, T/C [23]: 83.3%; viability, T/C [24]: 75.5%; viability, T/C [25]: 85.7%; viability, T/C [26]: 75.4%; viability, T/C [27]: 72.3%; viability, T/C [28]: 64.4%; viability, T/C [16]: 31.4%; viability, T/C [29]: 71.9%; viability, T/C [30]: 69.4%; viability, T/C [17]: 61.7%; viability, T/C [18]: 52.6%; viability, T/C [19]: 45.9%; viability, T/C [20]: 28.4%
CCc1c2c(nc3ccc(O)cc13)-c1cc3c(c(=O)n1C2)COC(=O)[C@]3(O)CC + Cc1ccccc1N=Nc1ccc(NC(=O)c2ccnn2C)c(C)c1 | 12.8 | 15 | 12.3 | 22.3 | 44.4 | 52.5 | 46.3 | 46.9 | 34.1 | 52.2 | 47.1 | 41.8 | 38.9 | 50.8 | 45 | 39.6 | 34.2 | 57.2 | 45.6 | 42.8 | viability, T/C [21]: 87.4%; viability, T/C [22]: 86.4%; viability, T/C [23]: 103%; viability, T/C [24]: 80%; viability, T/C [25]: 85%; viability, T/C [26]: 78.2%; viability, T/C [27]: 95.7%; viability, T/C [28]: 82%; viability, T/C [16]: 29.7%; viability, T/C [29]: 115%; viability, T/C [30]: 87.5%; viability, T/C [17]: 60.5%; viability, T/C [18]: 51.2%; viability, T/C [19]: 49.9%; viability, T/C [20]: 39.4%
